Earlier results in US20110152177A1, “Functional Feed Composition” (priority 2008, published 2011).

Assays:
Vibrio anguillarium = conditions: lower and higher doses reported to increase mortalities
V. anguillarum = conditions: oral administration of PG at 0.2 and 2 mg/kg diet

peptidoglycan
optimal dose of peptidoglycan in diet (Vibrio anguillarium): 4 g kg^−1 diet | disease resistance (V. anguillarum): enhances the disease resistance
